Test results taken from patent US7718703B2, “Norvaline derivative and method for preparation thereof” (Mitsubishi Tanabe Pharma Corporation, priority 2006, dated 2010).

Legend:
human GlyT2 = biological target: T1, human GlyT2 (Homo sapiens, UniProt Q9Y345); test: Glycine uptake assay (GlyT2 assay); type: cell-based; conditions: HEK 293 cells stably transfected with human GlyT2; 14C-glycine 10 μM; room temperature 2-3 hours
T1 construct: expressed in transfected cells
T1 sequence (Q9Y345 1-797): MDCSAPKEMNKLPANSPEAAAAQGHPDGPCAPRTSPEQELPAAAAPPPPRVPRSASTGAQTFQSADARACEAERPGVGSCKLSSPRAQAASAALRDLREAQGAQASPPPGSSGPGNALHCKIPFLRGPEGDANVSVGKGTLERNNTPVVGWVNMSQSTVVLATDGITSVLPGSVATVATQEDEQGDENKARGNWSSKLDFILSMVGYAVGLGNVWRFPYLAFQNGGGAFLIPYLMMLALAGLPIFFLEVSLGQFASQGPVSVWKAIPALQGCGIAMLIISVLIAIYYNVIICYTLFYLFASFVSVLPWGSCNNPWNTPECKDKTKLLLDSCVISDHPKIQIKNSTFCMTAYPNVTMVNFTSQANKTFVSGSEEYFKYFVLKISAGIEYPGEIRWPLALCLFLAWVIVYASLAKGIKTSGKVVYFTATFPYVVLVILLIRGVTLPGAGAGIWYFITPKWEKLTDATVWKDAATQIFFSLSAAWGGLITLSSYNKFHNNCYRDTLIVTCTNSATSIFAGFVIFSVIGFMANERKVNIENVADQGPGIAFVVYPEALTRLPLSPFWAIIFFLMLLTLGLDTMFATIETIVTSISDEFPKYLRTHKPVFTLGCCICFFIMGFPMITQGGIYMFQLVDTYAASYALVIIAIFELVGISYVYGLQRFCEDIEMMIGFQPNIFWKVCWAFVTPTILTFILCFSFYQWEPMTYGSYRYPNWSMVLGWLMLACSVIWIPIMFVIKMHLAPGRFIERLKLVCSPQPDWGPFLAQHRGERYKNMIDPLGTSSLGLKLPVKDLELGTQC
Protocol: Experiment 1 Glycine uptake assay (GlyT2 and GlyT1 assay)
Inhibitory activity on GlyT2 and GlyT1 was examined by glycine uptake assays using cells expressing GlyT2 or GlyT1, as described in the literatures, Caulfield et al. (J. Med. Chem., 2001, 44, 2679-2682), Williams et al. (Anal. Biochem., 2003, 321, 31-37, etc.), and/or Morrow et al. (FEBS Letters, 1998, 439: 334-340).
Briefly, the assays were performed as follows.
HEK 293 cells stably transfected with either human GlyT2 or human GlyT1b were used. The cells were grown in 96-well Cytostar-T™ scintillating microplates (20,000-40,000 cells/well) overnight before removal of culture medium and addition of HEPES buffered saline containing glycine (10 μM) labeled with ^14C and varying concentrations of test compounds.
Plates were incubated at room temperature for 2-3 hours, and then, the plates were counted in a plate counter.
Data were analyzed by the sigmoid dose-response curve fitting to produce IC50 (the concentration of test compound producing 50% inhibition) values.

Row | melting point [°C] | IC50 (human GlyT2) [µM] | Compound
1 | 103 to 104 | – | CCCCCCOc1ccc(C(=O)N[C@@H](CCC)C(=O)NCCN(C)C)cc1 [Example 1.001, N-[(1S)-1-[[[2-(dimethylamino)ethyl]amino]carbonyl]butyl]-4-(hexyloxy)benzamide]
2 | – | < 0.01 | CCC[C@H](NC(=O)c1cc(OC)c(OCc2ccccc2)c(OC)c1)C(=O)NCC1(N(C)C)CCCC1 [Example 1.026]
